Experimental data: ChEMBL document CHEMBL1909046, “DrugMatrix in vitro pharmacology data”
pIC50: −log10 of the molar value.

What was measured:
[1] = target: T1, Muscarinic acetylcholine receptor M5 (Homo sapiens, UniProt P08912); assay type: cell membranes, CHO-K1, Membrane; settings: cho-k1; also: in other assays of this panel Not Active means under 50% inhibition at 10 µM
T1 sequence (P08912 whole entry): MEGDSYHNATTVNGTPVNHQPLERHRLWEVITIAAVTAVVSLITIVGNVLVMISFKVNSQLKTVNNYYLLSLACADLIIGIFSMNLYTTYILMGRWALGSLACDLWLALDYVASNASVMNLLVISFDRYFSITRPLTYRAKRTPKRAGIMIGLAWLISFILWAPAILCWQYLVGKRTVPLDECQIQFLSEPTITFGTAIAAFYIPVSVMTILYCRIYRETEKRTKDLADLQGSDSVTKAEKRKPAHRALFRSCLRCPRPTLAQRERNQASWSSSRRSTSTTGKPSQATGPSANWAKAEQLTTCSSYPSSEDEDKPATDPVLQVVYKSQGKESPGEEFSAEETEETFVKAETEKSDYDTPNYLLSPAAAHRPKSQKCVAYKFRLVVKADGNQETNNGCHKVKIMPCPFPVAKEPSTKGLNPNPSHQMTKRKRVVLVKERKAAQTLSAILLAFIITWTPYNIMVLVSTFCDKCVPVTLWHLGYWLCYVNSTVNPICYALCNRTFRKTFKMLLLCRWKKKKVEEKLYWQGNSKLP

[2] = target: Prostaglandin G/H synthase 1 (Homo sapiens, UniProt P23219); test: biochemical; assay type: tissue-based, Platelet; settings: for IC50 / Ki: platelet; for pIC50: read-out: IC50;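 as to all read-outs here: inhibition of COX-1 enzyme activity, with arachidonic acid supplied as substrate; in other assays of this panel Not Active means under 50% inhibition at 10 µM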
Chain of Prostaglandin G/H synthase 1 (P23219 whole entry): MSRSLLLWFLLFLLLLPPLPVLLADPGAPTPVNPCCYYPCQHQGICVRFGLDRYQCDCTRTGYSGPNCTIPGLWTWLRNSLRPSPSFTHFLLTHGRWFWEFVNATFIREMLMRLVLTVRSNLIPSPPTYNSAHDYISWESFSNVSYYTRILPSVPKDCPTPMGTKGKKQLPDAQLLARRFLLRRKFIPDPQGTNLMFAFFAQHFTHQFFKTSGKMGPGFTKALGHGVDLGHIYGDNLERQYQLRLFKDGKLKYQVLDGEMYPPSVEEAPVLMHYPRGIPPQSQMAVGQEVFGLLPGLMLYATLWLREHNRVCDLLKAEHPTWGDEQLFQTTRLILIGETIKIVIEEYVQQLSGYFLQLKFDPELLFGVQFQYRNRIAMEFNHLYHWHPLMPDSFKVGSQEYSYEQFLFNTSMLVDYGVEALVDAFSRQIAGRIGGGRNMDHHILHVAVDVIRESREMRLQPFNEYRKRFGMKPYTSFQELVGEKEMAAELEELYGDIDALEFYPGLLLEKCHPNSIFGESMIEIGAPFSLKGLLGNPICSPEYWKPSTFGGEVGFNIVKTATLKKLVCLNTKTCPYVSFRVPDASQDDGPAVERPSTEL

[3] = target: 5-hydroxytryptamine receptor 2B (Homo sapiens, UniProt P41595); assay type: cell membranes, CHO-K1, Membrane; settings: cho-k1; also: in other assays of this panel Not Active means under 50% inhibition at 10 µM
Chain of 5-hydroxytryptamine receptor 2B (P41595 whole entry): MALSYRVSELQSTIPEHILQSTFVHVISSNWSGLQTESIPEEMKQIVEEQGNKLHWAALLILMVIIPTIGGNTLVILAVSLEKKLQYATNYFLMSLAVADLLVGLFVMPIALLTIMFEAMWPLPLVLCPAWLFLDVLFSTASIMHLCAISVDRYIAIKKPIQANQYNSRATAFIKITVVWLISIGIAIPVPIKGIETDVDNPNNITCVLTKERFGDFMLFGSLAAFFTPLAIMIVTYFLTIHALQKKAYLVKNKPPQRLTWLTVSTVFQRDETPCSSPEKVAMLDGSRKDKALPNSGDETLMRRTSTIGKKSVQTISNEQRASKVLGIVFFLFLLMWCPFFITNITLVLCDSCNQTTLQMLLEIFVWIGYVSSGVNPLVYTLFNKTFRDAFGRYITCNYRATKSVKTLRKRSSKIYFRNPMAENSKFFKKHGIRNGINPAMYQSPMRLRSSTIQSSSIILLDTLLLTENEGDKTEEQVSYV

[4] = target: T2, Cytochrome P450 2A6 (Homo sapiens, UniProt P11509); settings: bti-tn-5b1-4; also: in other assays of this panel Not Active means under 50% inhibition at 10 µM
T2 sequence (P11509 whole entry): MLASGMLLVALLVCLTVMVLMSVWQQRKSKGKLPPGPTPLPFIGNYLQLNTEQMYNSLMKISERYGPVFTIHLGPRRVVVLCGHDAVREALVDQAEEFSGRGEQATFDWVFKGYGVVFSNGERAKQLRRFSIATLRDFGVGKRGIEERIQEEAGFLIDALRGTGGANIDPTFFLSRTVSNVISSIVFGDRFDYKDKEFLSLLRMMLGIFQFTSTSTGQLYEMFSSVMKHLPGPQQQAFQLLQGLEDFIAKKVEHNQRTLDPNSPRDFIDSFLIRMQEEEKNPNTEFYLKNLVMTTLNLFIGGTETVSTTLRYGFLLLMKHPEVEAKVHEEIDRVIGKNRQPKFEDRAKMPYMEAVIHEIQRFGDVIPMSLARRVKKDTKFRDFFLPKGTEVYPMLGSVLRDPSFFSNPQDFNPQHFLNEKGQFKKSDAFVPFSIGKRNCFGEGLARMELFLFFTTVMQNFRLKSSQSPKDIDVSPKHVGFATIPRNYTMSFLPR

[5] = DRUGMATRIX: Glutamate, NMDA, Agonism radioligand binding (ligand: [3H] CGP-39653); assay type: cell membranes, Rattus norvegicus, Wistar, Cerebral cortex, Membrane; settings: Not Active = under 50% inhibition at 10 µM
[6] = target: T3, Leukotriene C4 synthase (Cavia porcellus, UniProt A6XA80); assay type: tissue-based, Lung
T3 sequence (A6XA80 whole entry): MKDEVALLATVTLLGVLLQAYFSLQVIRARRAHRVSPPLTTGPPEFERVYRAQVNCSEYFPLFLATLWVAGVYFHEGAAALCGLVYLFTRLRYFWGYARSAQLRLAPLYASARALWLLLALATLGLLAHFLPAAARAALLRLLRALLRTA

[7] = target: Mitogen-activated protein kinase 3 (Homo sapiens, UniProt P27361); test: DRUGMATRIX: Protein Serine/Threonine Kinase, ERK1 enzyme inhibition (substrate: Myelin Basic Protein); set-up: species or system Escherichia coli; settings: Not Active = under 50% inhibition at 10 µM
Chain of Mitogen-activated protein kinase 3 (P27361 whole entry): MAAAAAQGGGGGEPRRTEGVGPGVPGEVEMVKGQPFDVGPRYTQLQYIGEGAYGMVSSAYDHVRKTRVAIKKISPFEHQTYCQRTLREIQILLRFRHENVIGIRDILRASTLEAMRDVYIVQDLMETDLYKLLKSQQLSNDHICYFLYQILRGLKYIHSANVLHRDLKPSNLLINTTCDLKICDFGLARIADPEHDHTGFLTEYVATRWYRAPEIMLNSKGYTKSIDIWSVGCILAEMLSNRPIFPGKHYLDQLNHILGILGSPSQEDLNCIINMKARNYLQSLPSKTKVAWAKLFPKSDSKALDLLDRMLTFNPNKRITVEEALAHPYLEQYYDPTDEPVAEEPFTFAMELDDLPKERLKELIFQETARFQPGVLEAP

CC[C@@H](C(=O)[C@@H](C)[C@@H](O)[C@H](C)[C@@H]1O[C@@H]([C@@H](CC)C(=O)O)CC[C@@H]1C)[C@H]1O[C@]2(C=C[C@@H](O)[C@]3(CC[C@@](C)([C@H]4CC[C@](O)(CC)[C@H](C)O4)O3)O2)[C@H](C)C[C@@H]1C [SALINOMYCIN]
Not Active: IC50 [1] | IC50 [2] | IC50 [3] | IC50 [4] | Ki [4] | IC50 [5] | Ki [5] | IC50 [6] | IC50 [7]

O=C(Oc1ccccc1C(=O)O)c1ccccc1O [SALSALATE]
Not Active: IC50 [1] | IC50 [2] | IC50 [3] | IC50 [4] | Ki [4] | IC50 [5] | Ki [5] | IC50 [6] | IC50 [7]

O=C(O)c1cn(-c2ccc(F)cc2)c2cc(N3CCNCC3)c(F)cc2c1=O [SARAFLOXACIN]
Not Active: IC50 [1] | IC50 [2] | IC50 [3] | IC50 [4] | Ki [4] | IC50 [5] | Ki [5] | IC50 [6] | IC50 [7]

CC(C)NCC(O)c1ccc(NS(C)(=O)=O)cc1 (stereo unspecified) [SOTALOL]
Not Active: IC50 [1] | IC50 [2] | IC50 [3] | IC50 [4] | Ki [4] | IC50 [5] | Ki [5] | IC50 [6] | IC50 [7]

O.O.O.O.O.O.[Cl-].[Cl-].[Sr+2] [STRONTIUM CHLORIDE HEXAHYDRATE]
Not Active: IC50 [1] | IC50 [2] | IC50 [3] | IC50 [4] | Ki [4] | IC50 [5] | Ki [5] | IC50 [6] | IC50 [7]

O=C1C(CC[S+]([O-])c2ccccc2)C(=O)N(c2ccccc2)N1c1ccccc1 (stereo unspecified) [SULFINPYRAZONE]
Not Active: IC50 [1] | IC50 [2] | IC50 [3] | IC50 [4] | Ki [4] | IC50 [5] | Ki [5] | IC50 [6] | IC50 [7]

NC(=O)N1C(=O)/C(=C(\O)c2cccs2)c2cc(Cl)ccc21 [TENIDAP]
7.26: pIC50 [2]
Not Active: IC50 [1] | IC50 [3] | IC50 [4] | Ki [4] | IC50 [5] | Ki [5] | IC50 [6] | IC50 [7]

COc1cc2nc(N3CCN(C(=O)C4CCCO4)CC3)nc(N)c2cc1OC (stereo unspecified) [TERAZOSIN]
Not Active: IC50 [1] | IC50 [2] | IC50 [3] | IC50 [4] | Ki [4] | IC50 [5] | Ki [5] | IC50 [6] | IC50 [7]

CN(C/C=C/C#CC(C)(C)C)Cc1cccc2ccccc12 [TERBINAFINE]
Not Active: IC50 [1] | IC50 [2] | IC50 [3] | IC50 [4] | Ki [4] | IC50 [5] | Ki [5] | IC50 [6] | IC50 [7]

CCCCNc1ccc(C(=O)OCCN(C)C)cc1 [TETRACAINE]
Not Active: IC50 [1] | IC50 [2] | Ki [3] | IC50 [4] | Ki [4] | IC50 [5] | Ki [5] | IC50 [6] | IC50 [7]

Cn1c(=O)c2nc[nH]c2n(C)c1=O.O [THEOPHYLLINE]
Not Active: IC50 [1] | IC50 [2] | IC50 [3] | IC50 [4] | Ki [4] | IC50 [5] | Ki [5] | IC50 [6] | IC50 [7]

CS(=O)(=O)c1ccc([C@@H](O)[C@@H](CO)NC(=O)C(Cl)Cl)cc1 [THIAMPHENICOL]
Not Active: IC50 [1] | IC50 [2] | IC50 [3] | IC50 [4] | Ki [4] | IC50 [5] | Ki [5] | IC50 [6] | IC50 [7]

CCN(CC)CCNC(=O)c1cc(S(C)(=O)=O)ccc1OC [TIAPRIDE]
Not Active: IC50 [1] | IC50 [2] | IC50 [3] | IC50 [4] | Ki [4] | IC50 [5] | Ki [5] | IC50 [6] | IC50 [7]

Clc1ccccc1CN1CCc2sccc2C1 [TICLOPIDINE]
Not Active: IC50 [1] | IC50 [2] | IC50 [3] | IC50 [4] | Ki [4] | IC50 [5] | Ki [5] | IC50 [6] | IC50 [7]

NC1CCN(c2nc3c(cc2F)c(=O)c(C(=O)O)cn3-c2ccc(F)cc2F)C1 (stereo unspecified) [TOSUFLOXACIN]
Not Active: IC50 [1] | IC50 [2] | IC50 [3] | IC50 [4] | Ki [4] | IC50 [5] | Ki [5] | IC50 [6] | IC50 [7]

O=C(Nc1ccc(Br)cc1)c1cc(Br)cc(Br)c1O [TRIBROMSALAN]
Not Active: IC50 [1] | IC50 [3] | IC50 [4] | Ki [4] | IC50 [5] | Ki [5] | IC50 [6] | IC50 [7]
5.69: pIC50 [2]

CC(c1cc2ccccc2s1)N(O)C(N)=O (stereo unspecified) [ZILEUTON]
Not Active: IC50 [1] | IC50 [2] | IC50 [3] | IC50 [4] | Ki [4] | IC50 [5] | Ki [5] | IC50 [6] | IC50 [7]

MANGANESE CHLORIDE ANHYDROUS
Not Active: IC50 [1] | Ki [1] | IC50 [2] | Ki [2] | IC50 [3] | Ki [3] | IC50 [4] | Ki [4] | IC50 [5] | Ki [5] | IC50 [6] | Ki [6] | IC50 [7] | Ki [7]

SODIUM ORTHOVANAD
Not Active: IC50 [1] | Ki [1] | IC50 [2] | Ki [2] | IC50 [3] | Ki [3] | IC50 [4] | Ki [4] | IC50 [5] | Ki [5] | IC50 [6] | Ki [6] | IC50 [7] | Ki [7]
